Several values for one entry are separate records, joined by “and”; a condition that tells them apart may be missing. Equal entries are not always repeated. Ends that are not written are not given here.
Experiments:
[1] = tested on: thalamic parvalbumin-ir neurons; assay: BrdU/parvalbumin proliferation within thalamocortical OTCs; type: cell-based, rat; conditions: 3 nM
Description: Thalamocortical OTCs from rats, as described above in Examples 3 and 4 were incubated at the start of cultivation with 2 μM of BrdU that was removed after 24 hours of cultivation time. OTCs were fixed in 4% paraformaldehyde in 0.1 M phosphate buffer (pH 7.4). Blocking was done in 0.4% Triton and 10% normal goat serum in PBS for 30 minutes. Subsequently the cultures were treated for 30 minutes in 2N HCl at 37° C. and neutralized by 0.1 M Na2B4O7 for 2×5 minutes. Internal peroxidase activity was prevented by 5 minute treatment of the OTCs in 1% H2O2 (only in case of the PAP reaction). Primary antibody (mouse anti-BrdU 1/50-Sigma) reaction was done overnight in 0.4% Triton, 2% BSA in PBS.
Biotinylated goat anti-mouse IgG was applied (1/200 for 2 h) with the subsequent application of the avidin biotin horseradish peroxidase system and the final DAB-detection (0.05%); 0.009% H2O2 enhanced by 0.025% cobalt chloride and 0.02% nickel ammonium sulphate. BrdU-positive nuclei become black stained. […] For double fluorescence detection, mouse anti-BrdU IgG and rabbit anti-parvalbumin IgG (or rabbit anti-calretinin 1/1000) were given simultaneously after the neutralisation step and anti-parvalbumin antibody binding was detected by the biotin-streptavidin/Cy2 detection system while the occurrence of BrdU was monitored by an anti-mouse/Cy3 IgG. […]

cerebellar microexplants = assay: cerebellar microexplant proliferation assay under injury (BrdU-positive nuclei); type: cell-based, rat
Description: Using the toxins described above, cerebellar explants were exposed for 24 hours, at the beginning of culturing to dilutions of NRP and 0.1 μM BrdU. Subsequently, 80% of the medium was changed without addition of new toxins and NRPs. The cerebellar cultures were fixed as described above after 3 days in vitro. The detection of the incorporated BrdU level was performed as described previously. Under these conditions, over 99% of the cells in the cerebellar population were neurons. Therefore any increase in cell number after NRP administration was most likely due to neuronal cell proliferation.
For statistical analysis of proliferation four fields (each field having an area of 0.65 mm^2) of each fixed cerebellar culture displaying highest density of BrdU-positive nuclei were chosen, and BrdU-positive nuclei were counted. Statistical significance was measured by Student's t-test.
Laminated cerebellar cortex was extracted from P3/4, P7/8 rat pups and triturated through gauze having a 125 μm pore size to obtain uniformly sized microexplants. After centrifugation for 3 minutes at 61 g and the pellet was resuspended in StartV medium (Biochrom) and the suspension seeded on poly-D-lysine coated coverslips in 6-well plates and incubated for 3 hrs to allow adherence, before 1 ml StartV per well was added. As described previously, glutamate/3-NP and NRP were also added. The explants are cultivated at 34° C. at 5% CO2 and 100% humidity for 48-72 hrs. BrdU was administered at start of cultivation for proliferation rate measurements and cells are counted per microscopic field after 48-72 hrs.

## NRP-1: rat 16 amino acid neural regeneration peptide purified from hippocampal OTC supernatant, Tyr Asp Pro Glu ... Cys His-NH2 (YDPEAASAPGSGNPCH-NH2)
[1]; 5 days in vitro
  parvalbumin-ir thalamic neurons co-localised with BrdU: 6.8±1.3% and 6.8%
[1]; vs defined medium alone
  enhanced proliferation of parvalbumin expressing neurons compared to controls: up to 150%

## SEPEARRAPGRKGGVVCASLAADW-NH2 [NRP-7 segment SW, 24-mer form of mouse NRP-7]
Cerebellar microexplants; 0.1 pM
  up regulation of the proliferation rate observed for injured cerebellar microexplants: 252.6%
Cerebellar microexplants; 100 pM
  up regulation of the proliferation rate observed for injured cerebellar microexplants: 123.7%
Cerebellar microexplants; neurons injured using 3-NP/glutamate
  enhancement of the proliferation rate: more than 200%

From patent publication US7563862B2, “Neural regeneration peptides and methods for their use in treatment of brain damage” (Neuren Pharmaceuticals Limited, priority 2001, dated 2009)
